# Laboratory results taken from publication PMC5770468, “Cardiac glycoside/aglycones inhibit HIV-1 gene expression by a mechanism requiring MEK1/2-ERK1/2 signaling” (Scientific Reports, 2018).
# Legend:
# [1] = tested on: HIV-1 (Gag) gene expression; conditions: HeLa rtTA-HIV-ΔMls cells; read-out: IC90, HIV-1 (Gag) gene expression (digoxin, published); cited from earlier work
# [2] = tested on: HeLa rtTA-HIV(Gag-GFP) cells; type: cell-based, human; conditions: 220 nM
# Method: Using the same methods and conditions described for HeLa rtTA-HIV-ΔMls cells, HeLa rtTA-HIV(Gag-GFP) cells were seeded in 48-/12-well plates and pretreated with/without pathway inhibitor prior to treatment with drug/compounds and Dox. Equal concentrations of DMSO were present in each experiment. HIV-1 gene expression was determined by detecting Gag-GFP fluorescence in cells by plate scans using a Typhoon Imager 9400 (Amersham Biosciences) or Typhoon FLA 9400 (GE) on ImageQuant, cell lysates by SDS-PAGE captured on ChemiDoc MP, or cell lysates by p24^CA ELISA. Before quantification, cells were washed with warm PBS and either scanned live (and harvested for protein analyses) or fixed in 3.7% paraformaldehyde/formaldehyde-PBS for subsequent analyses. Data from cell scans and SDS-PAGEs were quantitated using ImageJ and Image Lab software, respectively. To determine which pathway signal was used by a CS to inhibit HIV-1 gene expression, cells treated with CS were pre-treated with a specific pathway inhibitor and monitored for recovery of Gag-GFP expression. […] In parallel, the cell viability of each pathway inhibitor and CS treatment combination were monitored by cell density staining of fixed cells with 2% methylene blue (BioBasic, #MB0342) in 50% ethanol and read at OD664 on a TECAN Infinite® 200 PRO or Biotek Cytation5. […]
# HIV-1 Gag expression = experiment: HIV-1 Gag-GFP expression in HeLa rtTA-HIV(Gag-GFP) cells; type: cell-based; conditions: 220 nM
# Method: Figure 7 Activation of the MEK1/2-ERK1/2 signaling pathway suppresses HIV-1 gene expression. HeLa rtTA-HIV(Gag-GFP) cells were pre-treated overnight (~15 h) with/without an inhibitor of MEK1/2 (12 μM U0126, MEKi, white), p38α/β/β2 (15 μM SB203580, p38i, light gray), JNK1/2/3 (1.25 μM SP600125, JNKi, hatched), or NCX (5 μM KB-R7943, NCXi, gray) and treated with a MEK1/2-ERK1/2 activator, anisomycin, to isolate the pathway signal as described (and run in parallel for verification of inhibitor activity) in Figures 6 and 5d–f. Cells were monitored for HIV-1 gene expression by detecting Gag-GFP fluorescence in cell lysates (35 μg) resolved on reducing SDS-PAGE, levels of ERK activation by immunoblotting of phospho- and total-ERK from cell lysates, and extent of viral RNA expression by qRT-PCR of mRNAs extracted. […] RNAs were quantified by qRT-PCR as described in Figures 4a,b. […]
# Using the same methods and conditions described for HeLa rtTA-HIV-ΔMls cells, HeLa rtTA-HIV(Gag-GFP) cells were seeded in 48-/12-well plates and pretreated with/without pathway inhibitor prior to treatment with drug/compounds and Dox. […] HIV-1 gene expression was determined by detecting Gag-GFP fluorescence in cells by plate scans using a Typhoon Imager 9400 (Amersham Biosciences) or Typhoon FLA 9400 (GE) on ImageQuant, cell lysates by SDS-PAGE captured on ChemiDoc MP, or cell lysates by p24^CA ELISA. […]
SMILES,IC90 [1] [nM],effect on cell density [2],HIV-1 Gag expression (HIV-1 Gag expression)
C[C@H]1O[C@@H](O[C@H]2[C@@H](O)C[C@H](O[C@H]3[C@@H](O)C[C@H](O[C@H]4CC[C@@]5(C)[C@H](CC[C@@H]6[C@@H]5C[C@@H](O)[C@]5(C)[C@@H](C7=CC(=O)OC7)CC[C@]65O)C4)O[C@@H]3C)O[C@@H]2C)C[C@H](O)[C@@H]1O [Digoxin],100,–,–
"COc1ccc(C[C@H]2NC[C@H](O)[C@H]2OC(C)=O)cc1 [anisomycin, Anisomycin]",–,little to no effect,inhibited
